Reference: PubChem BioAssay (NCI)
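Cultured in 96-well plates, cells were exposed to test compound for 48 hours across five concentrations. TGI: concentration producing complete growth inhibition.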

Tests used:
Test in all cases: NCI-60 cell line screen, 48 h
SK-OV-3 ovarian = system: SK-OV-3 ovarian
MALME-3M melanoma = system: MALME-3M melanoma
SNB-19 CNS = system: SNB-19 CNS
CCRF-CEM leukemia = system: CCRF-CEM leukemia
SF-268 CNS = system: SF-268 CNS
NCI-H226 lung = system: NCI-H226 lung
SK-MEL-5 melanoma = system: SK-MEL-5 melanoma
HL-60(TB) leukemia = system: HL-60(TB) leukemia
MOLT-4 leukemia = system: MOLT-4 leukemia
KM12 colon = system: KM12 colon
OVCAR-5 ovarian = system: OVCAR-5 ovarian
SN12C renal = system: SN12C renal
SW-620 colon = system: SW-620 colon
HT29 colon = system: HT29 colon
PC-3 prostate = system: PC-3 prostate
NCI-H522 lung = system: NCI-H522 lung
CAKI-1 renal = system: CAKI-1 renal
OVCAR-4 ovarian = system: OVCAR-4 ovarian
UACC-62 melanoma = system: UACC-62 melanoma
COLO 205 colon = system: COLO 205 colon
TK-10 renal = system: TK-10 renal
SF-539 CNS = system: SF-539 CNS
SK-MEL-2 melanoma = system: SK-MEL-2 melanoma
SK-MEL-28 melanoma = system: SK-MEL-28 melanoma
NCI/ADR-RES ovarian = system: NCI/ADR-RES ovarian
MDA-N = system: MDA-N
HCC-2998 colon = system: HCC-2998 colon
HCT-15 colon = system: HCT-15 colon
OVCAR-8 ovarian = system: OVCAR-8 ovarian
OVCAR-3 ovarian = system: OVCAR-3 ovarian
ACHN renal = system: ACHN renal
K-562 leukemia = system: K-562 leukemia
IGROV1 ovarian = system: IGROV1 ovarian
SF-295 CNS = system: SF-295 CNS
M14 melanoma = system: M14 melanoma
DU-145 prostate = system: DU-145 prostate
HS 578T breast = system: HS 578T breast
SR leukemia = system: SR leukemia
NCI-H23 lung = system: NCI-H23 lung
BT-549 breast = system: BT-549 breast
HCT-116 colon = system: HCT-116 colon
UO-31 renal = system: UO-31 renal
A498 renal = system: A498 renal
SNB-75 CNS = system: SNB-75 CNS
HOP-62 NSCLC = system: HOP-62 NSCLC
MDA-MB-231 breast = system: MDA-MB-231 breast
A549 NSCLC = system: A549 NSCLC
UACC-257 melanoma = system: UACC-257 melanoma
U251 CNS = system: U251 CNS
EKVX NSCLC = system: EKVX NSCLC
T-47D breast = system: T-47D breast
NCI-H460 lung = system: NCI-H460 lung
MCF7 breast = system: MCF7 breast
786-0 renal = system: 786-0 renal
RPMI-8226 leukemia = system: RPMI-8226 leukemia
RXF 393 renal = system: RXF 393 renal
LOX IMVI melanoma = system: LOX IMVI melanoma
HOP-92 NSCLC = system: HOP-92 NSCLC
MDA-MB-435 = system: MDA-MB-435

Measured: TGI

COC(=O)Nc1nc2cc(OC)c(OC)cc2c(=O)[nH]1
> 100 µM: SK-OV-3 ovarian | MALME-3M melanoma | SNB-19 CNS | CCRF-CEM leukemia | SF-268 CNS | NCI-H226 lung | SK-MEL-5 melanoma | HL-60(TB) leukemia | MOLT-4 leukemia | KM12 colon | OVCAR-5 ovarian | SN12C renal | SW-620 colon | HT29 colon | CAKI-1 renal | OVCAR-4 ovarian | UACC-62 melanoma | COLO 205 colon | TK-10 renal | SF-539 CNS | SK-MEL-2 melanoma | SK-MEL-28 melanoma | NCI/ADR-RES ovarian | HCC-2998 colon | HCT-15 colon | OVCAR-8 ovarian | OVCAR-3 ovarian | ACHN renal | K-562 leukemia | IGROV1 ovarian | M14 melanoma | DU-145 prostate | HS 578T breast | SR leukemia | NCI-H23 lung | BT-549 breast | HCT-116 colon | UO-31 renal | A498 renal | HOP-62 NSCLC | MDA-MB-231 breast | A549 NSCLC | UACC-257 melanoma | U251 CNS | EKVX NSCLC | T-47D breast | NCI-H460 lung | MCF7 breast | 786-0 renal
37 µM: SF-295 CNS
6.51 µM: NCI-H522 lung
43.6 µM: SNB-75 CNS
71 µM: PC-3 prostate
7.99 µM: MDA-N

O=C(CCc1ccccc1)ON1C(=S)NC(c2ccccc2)(c2ccccc2)C1=S
97.6 µM: NCI-H23 lung
89.7 µM: KM12 colon
52.8 µM: LOX IMVI melanoma
47.8 µM: SK-MEL-2 melanoma
71.5 µM: MALME-3M melanoma
63.8 µM: PC-3 prostate
93 µM: RXF 393 renal
80.4 µM: RPMI-8226 leukemia
75.5 µM: MOLT-4 leukemia
61.2 µM: HL-60(TB) leukemia
40.6 µM: SK-MEL-5 melanoma
82.7 µM: IGROV1 ovarian
> 100 µM: SK-OV-3 ovarian | SNB-19 CNS | SF-268 CNS | OVCAR-5 ovarian | SN12C renal | SW-620 colon | CAKI-1 renal | OVCAR-4 ovarian | UACC-62 melanoma | COLO 205 colon | TK-10 renal | SF-539 CNS | SK-MEL-28 melanoma | NCI/ADR-RES ovarian | MDA-N | HCC-2998 colon | HCT-15 colon | OVCAR-8 ovarian | OVCAR-3 ovarian | ACHN renal | K-562 leukemia | SF-295 CNS | M14 melanoma | DU-145 prostate | HS 578T breast | BT-549 breast | HOP-92 NSCLC | HCT-116 colon | UO-31 renal | A498 renal | MDA-MB-435 | SNB-75 CNS | HOP-62 NSCLC | MDA-MB-231 breast | A549 NSCLC | UACC-257 melanoma | U251 CNS | EKVX NSCLC | T-47D breast | NCI-H460 lung | MCF7 breast | 786-0 renal
93.6 µM: HT29 colon
93.4 µM: CCRF-CEM leukemia
93.1 µM: NCI-H226 lung

c1ccc(N=C(Nc2ccccc2)N2CCCCC2)cc1
84.9 µM: M14 melanoma
68.9 µM: UACC-257 melanoma
> 100 µM: SK-OV-3 ovarian | MALME-3M melanoma | SNB-19 CNS | CCRF-CEM leukemia | RPMI-8226 leukemia | SF-268 CNS | NCI-H226 lung | HL-60(TB) leukemia | MOLT-4 leukemia | KM12 colon | OVCAR-5 ovarian | SN12C renal | SW-620 colon | HT29 colon | PC-3 prostate | NCI-H522 lung | LOX IMVI melanoma | CAKI-1 renal | OVCAR-4 ovarian | UACC-62 melanoma | COLO 205 colon | TK-10 renal | SK-MEL-2 melanoma | SK-MEL-28 melanoma | NCI/ADR-RES ovarian | MDA-N | HCT-15 colon | OVCAR-8 ovarian | OVCAR-3 ovarian | ACHN renal | K-562 leukemia | IGROV1 ovarian | SF-295 CNS | HS 578T breast | SR leukemia | NCI-H23 lung | BT-549 breast | HOP-92 NSCLC | HCT-116 colon | UO-31 renal | MDA-MB-435 | SNB-75 CNS | HOP-62 NSCLC | A549 NSCLC | U251 CNS | EKVX NSCLC | T-47D breast | NCI-H460 lung | MCF7 breast | 786-0 renal

NNC(=O)c1ccccc1NC(=O)/C(=C/c1ccccc1O)NC(=O)c1ccccc1
50.8 µM: NCI/ADR-RES ovarian
92.4 µM: SF-539 CNS
79.7 µM: SNB-19 CNS
25.9 µM: SNB-75 CNS
39.3 µM: HS 578T breast
47.4 µM: NCI-H522 lung
24.2 µM: UO-31 renal
39.2 µM: MCF7 breast
28.1 µM: SF-268 CNS
> 100 µM: SK-OV-3 ovarian | MALME-3M melanoma | CCRF-CEM leukemia | RPMI-8226 leukemia | RXF 393 renal | NCI-H226 lung | SK-MEL-5 melanoma | HL-60(TB) leukemia | MOLT-4 leukemia | KM12 colon | OVCAR-5 ovarian | SN12C renal | SW-620 colon | HT29 colon | LOX IMVI melanoma | OVCAR-4 ovarian | UACC-62 melanoma | COLO 205 colon | TK-10 renal | SK-MEL-28 melanoma | MDA-N | HCC-2998 colon | HCT-15 colon | K-562 leukemia | IGROV1 ovarian | SF-295 CNS | M14 melanoma | DU-145 prostate | SR leukemia | NCI-H23 lung | BT-549 breast | HOP-92 NSCLC | HCT-116 colon | A498 renal | MDA-MB-435 | MDA-MB-231 breast | A549 NSCLC | UACC-257 melanoma | U251 CNS | EKVX NSCLC | T-47D breast | NCI-H460 lung | 786-0 renal
37.7 µM: OVCAR-8 ovarian
31.8 µM: CAKI-1 renal
32.7 µM: ACHN renal
